Measured values: PubChem BioAssay (NCI)
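96-well plates; 48 h exposure; 5 concentrations. Endpoints by linear interpolation between flanking doses. Not reached: highest tested concentration assigned. At the GI50, growth is halved. TGI: concentration producing complete growth inhibition.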

Columns and labels:
Experiment in all cases: DTP human tumour cell line panel, 48 h
[1] = tested on: ACHN renal
[2] = tested on: CAKI-1 renal
[3] = tested on: HCT-116 colon
[4] = tested on: MCF7 breast
[5] = tested on: NCI-H522 lung
[6] = tested on: NCI/ADR-RES ovarian
[7] = tested on: OVCAR-3 ovarian
[8] = tested on: PC-3 prostate
[9] = tested on: SF-268 CNS
[10] = tested on: TK-10 renal

## Nc1cc(C(F)(F)F)c(-c2nc(N3CCOCC3)nc(N3CCOCC3)n2)cn1
[1]
  GI50: 0.403 µM
  TGI: > 100 µM
[2]
  GI50: 0.502 µM
  TGI: > 71.7 µM
[3]
  GI50: 0.605 µM
  TGI: > 100 µM
[4]
  GI50: 0.113 µM
  TGI: 19 µM
[5]
  GI50: 0.624 µM
  TGI: > 83.9 µM
[6]
  TGI: > 23.2 µM
[7]
  GI50: 0.313 µM
  TGI: 11.2 µM
[8]
  GI50: 0.258 µM
  TGI: > 100 µM
[9]
  GI50: 0.476 µM
  TGI: > 72.5 µM
[10]
  GI50: 0.11 µM
  TGI: 1.17 µM

## O=C1NC(c2ccccc2Cl)Nc2ccccc21 (stereo not drawn)
[1]
  TGI: > 100 µM
[2]
  TGI: 91.8 µM
[3]
  TGI: > 100 µM
[4]
  TGI: > 100 µM
[5]
  TGI: 72.1 µM
[6]
  TGI: 27.5 µM
[7]
  TGI: 31.3 µM
[8]
  TGI: > 72.6 µM
[9]
  TGI: > 100 µM
[10]
  TGI: > 100 µM

## O=C1c2ccccc2-c2c1c1c(O)cccc1n2Cc1ccccc1
[1]
  GI50: 6.9 µM
  TGI: 23.8 µM
[2]
  GI50: 7.15 µM
  TGI: 20.8 µM
[3]
  GI50: 11.8 µM
  TGI: > 100 µM
[4]
  GI50: 6.75 µM
  TGI: 30.8 µM
[5]
  GI50: 40 µM
  TGI: > 100 µM
[6]
  GI50: 6.5 µM
  TGI: 33.6 µM
[7]
  GI50: 4.17 µM
  TGI: 17.3 µM
[8]
  GI50: 12.3 µM
  TGI: 32.6 µM
[9]
  GI50: 6.58 µM
  TGI: 37.9 µM
[10]
  GI50: 8.74 µM
  TGI: 22.5 µM

## N#CC1=C(N)Oc2c(ccc3ccccc23)C1c1cc2ccccc2n2nnnc12 (stereo not drawn)
[1]
  GI50: 1.71 µM
  TGI: > 100 µM
[2]
  GI50: 5.74 µM
  TGI: > 100 µM
[3]
  GI50: 0.685 µM
  TGI: > 100 µM
[4]
  GI50: 0.471 µM
  TGI: > 100 µM
[5]
  GI50: 0.407 µM
  TGI: 2.9 µM
[6]
  GI50: 0.534 µM
  TGI: 46.6 µM
[7]
  GI50: 0.44 µM
  TGI: 3.36 µM
[8]
  GI50: 0.546 µM
  TGI: > 100 µM
[9]
  GI50: 3.23 µM
  TGI: > 100 µM
[10]
  GI50: 4.8 µM
  TGI: > 100 µM

## O=C(CCN1CCOCC1)Nc1ccc(Cn2nnc3c2C(=O)c2nnn(Cc4ccc(NC(=O)CCN5CCOCC5)cc4)c2C3=O)cc1
[1]
  GI50: > 100 µM
  TGI: > 100 µM
[2]
  GI50: > 100 µM
  TGI: > 100 µM
[3]
  GI50: 0.384 µM
  TGI: > 100 µM
[4]
  GI50: 0.271 µM
  TGI: 0.978 µM
[5]
  GI50: 1.63 µM
  TGI: 4.34 µM
[6]
  GI50: > 100 µM
  TGI: > 100 µM
[7]
  GI50: 0.333 µM
  TGI: 1.39 µM
[8]
  TGI: > 100 µM
[9]
  GI50: 1.28 µM
  TGI: > 100 µM
[10]
  GI50: > 100 µM
  TGI: > 100 µM

## O=C(CC1(O)C(=O)Nc2c(Cl)cc(Cl)cc21)c1cccc([N+](=O)[O-])c1 (stereo not drawn)
[1]
  TGI: > 54.6 µM
[2]
  TGI: > 93.2 µM
[3]
  TGI: 59 µM
[4]
  TGI: 33.3 µM
[5]
  TGI: > 100 µM
[6]
  TGI: > 100 µM
[7]
  TGI: 58.5 µM
[8]
  TGI: > 100 µM
[9]
  TGI: > 100 µM
[10]
  TGI: > 100 µM

## COc1ccc(-n2c(=O)c3ccccc3n(Cc3ccc(C(=O)NO)cc3)c2=O)cc1
[1]
  GI50: 3.23 µM
  TGI: 13.5 µM
[2]
  GI50: 6.39 µM
  TGI: 23.9 µM
[3]
  GI50: 1.78 µM
  TGI: 4.16 µM
[4]
  GI50: 2.68 µM
  TGI: 76.4 µM
[5]
  GI50: 1.45 µM
  TGI: 4.07 µM
[6]
  GI50: 18.2 µM
  TGI: > 100 µM
[7]
  GI50: 2.07 µM
  TGI: 5.95 µM
[8]
  GI50: 2.08 µM
  TGI: 5.06 µM
[9]
  GI50: 1.91 µM
  TGI: 4.25 µM
[10]
  GI50: 2.33 µM
  TGI: 12.9 µM
